In patent publication US20100273748A1, “ANTIMICROBIAL THERAPY” (priority 2006, published 2010):

How the values were obtained:
TLR2 = assay: Topical treatment of healthy volunteers' skin, TLR2 immunostaining; assay type: in vivo, human; conditions: topical 1,25D3 1.0 mM once applied, 4 days, versus vehicle-treated contralateral skin
Experimental: Patients and treatments. Human skin wounds were collected following informed consent by inducing 5 mm full-thickness wounds in volunteers (n=5) under aseptic conditions with local anesthesia as described. At 24 hours after incision, 4 mm punch biopsies were taken from the site of injury and immediately fixed in formalin for immunostaining or frozen in liquid N2 for subsequent RNA isolation. Intact skin from healthy volunteers served as control (n=4). To examine the effects of topical 1,25D3, healthy skin of volunteers (n=7) was treated once topically with 1,25D3 (1.0 mM) and left under occlusion for 4 days. Vehicle treated contralateral skin served as a control. After treatment, skin biopsies were obtained from both sites, fixed in formalin 10% and embedded in paraffin for immunostaining. All treatments and sample acquisitions, including skin biopsies, were approved by the committees on investigations involving human subjects.
Immunostaining. […] Nuclei were detected with DAPI. After subsequent washings with PBS slides, were mounted in ProLong Anti-Fade reagent (Molecular Probes, Eugene, Oreg.) and evaluated with an Olympus BX41 microscope (Olympus, Melville, N.Y.). […]
NaOH, pH6.0). […] Sections were washed in PBS and detected with biotinylated secondary antibodies (Vector Laboratories, Burlingame, Calif.) and diaminobenzidine substrate (Sigma) per manufacturers' instructions.

CD14 = assay: qPCR of CD14 mRNA in cultured keratinocytes; assay type: cell-based, human; conditions: 24 hours
Experimental: Cell culture and stimuli. Human keratinocytes were grown in serum-free EpiLife® cell culture media (Cascade Biologics; Portland, Oreg.) containing 0.06 mM Ca2+ and 1× EpiLife® defined growth supplement (EDGS) at 37° C. under standard tissue culture conditions. Stock cultures were maintained for up to five passages in this media with the addition of 50 U/mL penicillin and 50 μg/mL streptomycin. HaCaT keratinocytes were cultured in DMEM (Sigma, St. Louis, Mo.) with 10% FCS. Cells at 50-70% confluence were stimulated in fresh medium after preincubation with 1,25(OH)2 vitamin D3 (1,25D3; 0.1-100 nM, 4-24 h; Sigma). Alternatively, NHEK were stimulated in the presence of 1,25D3 (0.1-100 nM). Stimuli included TLR2,6 ligands Malp-2 (0.001-0.5 μg/ml; Alexis Biochemicals, Carlsbad, Calif.), FSL-1 (1-2 μg/ml, Invivogen, San Diego, Calif.) and zymosan (50 μg/ml; Invivogen), as well as flagellin (50 ng/ml; Alexis), LPS (1 μg/ml; Sigma), lipoteichoic acid (LTA; 10 μg/ml; Sigma), 19 kDA lipopeptide (10 μg/ml, a kind gift from S. Krutzik, Division of Dermatology, UCLA), CpG DNA (10 μg/ml; Sigma), Ca2+ (1.7 mM), LPS (1 μg/ml; Sigma), TNFα (20 ng/ml; Chemicon Temecula, Calif.) and TGFβ1 (0.1-1 μg/ml; R&D Systems, Minneapolis, Minn.). A TLR2 blocking antibody (αTLR2; clone TL2.1, 5 μg/ml, eBioscience, San Diego, Calif.) was utilized to investigate the role of TLR2 signaling. Furthermore, keratinocytes were pretreated with a vitamin D receptor antagonist (VDR-antagonist ZK159222 Schering AG; 10^-7M) or the CYP inhibitor itraconazole (ITRA; 10^-7M) before stimulation with TGFβ in the presence of 25OH vitamin D3 (25D3, 10 nM, Sigma).
Real-time RT-PCR (qPCR). RNA was extracted from cells, epidermal constructs or tissue using Trizol® and 1 μg RNA was reverse transcribed using iScript® (BioRad, Hercules, Calif.). Expression of cathelicidin and GAPDH was analysed by real-time RT-PCR. Predeveloped Taqman® assay probes (ABI, Foster City, Calif.) were used for the analyses of the expression of CYP24A1 (24-hydroxylase), CYP27B1 (1α-hydroxylase), CD14, CD36, TLR1, TLR2, TLR4, TLR6 and murine CD14. All analyses were performed in triplicate from 2-5 independent experiments in an ABI Prism® 7000 Sequence Detection System. Fold induction relative to the vehicle treated control in in vitro experiments was calculated using the comparative Ct method, where ΔΔCt is ΔCt(stimulant)-ΔCt(vehicle), ΔCt is Ct(gene)-Ct(GAPDH) and Ct is the cycle at which an arbitrary detection threshold is crossed. For quantification of transcript abundance in tissue samples target gene expression was normalized to GAPDH and compared to non-treated or non-injured skin.

## C=C1/C(=C\C=C2/CCC[C@]3(C)[C@@H]([C@H](C)CCCC(C)(C)O)CC[C@@H]23)C[C@@H](O)C[C@@H]1O [1,25D3, 1,25(OH)2 vitamin D3]
TLR2
  TLR2 staining intensity in skin sections: Staining intensity increased
CD14; 1,25D3 100 nM, keratinocyte monolayers
  CD14 mRNA expression: increases expression
CD14; 1,25D3 10^−8M
  CD14 transcript abundance: strongly upregulated
